Assay results: ChEMBL document CHEMBL6115036, “Exploration of membrane-active cephalosporin derivatives as potent antibacterial agents against Staphylococcus aureus biofilms and persisters” (Eur J Med Chem, 2025)
Values belong to the molecule of their own block, whether it stands above or below them. Activity calls are given as the source filed them. The calls are words filed in the database; no cut-off is given here.

How the values were obtained:
[1] = system: Stenotrophomonas maltophilia; experiment: Antimicrobial activity against Stenotrophomonas maltophilia incubated for 16 to 18 hrs by broth dilution assay; format: functional; conditions: time 16-18 hrs
Escherichia coli = experiment: Antimicrobial activity against Escherichia coli incubated for 16 to 18 hrs by broth dilution assay; format: functional; conditions: time 16-18 hrs
Enterococcus faecalis = experiment: Antimicrobial activity against Enterococcus faecalis incubated for 16 to 18 hrs by broth dilution assay; format: functional; conditions: time 16-18 hrs
Staphylococcus aureus [2] = experiment: Induction of inner membrane permeability in Staphylococcus aureus assessed as increase in fluorescence intensity measured for 20 mins by PI dye based analysis; format: functional, organism-based
Staphylococcus aureus [3] = experiment: Antimicrobial activity against Staphylococcus aureus incubated for 16 to 18 hrs by broth dilution assay; format: functional; conditions: time 16-18 hrs
Staphylococcus aureus [4] = experiment: Induction of cytoplasmic membrane depolarization in Staphylococcus aureus assessed as increase in fluorescence intensity measured for 20 mins by DiSC3(5) dye based analysis; format: functional, organism-based
Staphylococcus aureus [5] = experiment: Induction of cytoplasmic membrane depolarization in Staphylococcus aureus assessed as increase in fluorescence intensity at 32 ug/ml measured for 20 mins by DiSC3(5) dye based analysis; format: functional, organism-based; conditions: dose 32.0 µg/ml
[6] = Hemolytic activity in sheep red blood cells incubated for 1 hr; format: toxicity, cell-based, Ovis aries, Erythrocyte
Staphylococcus aureus [7] = experiment: Induction of inner membrane permeability in Staphylococcus aureus assessed as increase in fluorescence intensity at 32 ug/ml measured for 20 mins by PI dye based analysis; format: functional, organism-based; conditions: dose 32.0 µg/ml
Staphylococcus aureus [8] = experiment: Antibacterial activity against rifampicin-induced persistant Staphylococcus aureus assessed as decrease in CFU at 100 times MIC measured for 10 hrs; format: functional, organism-based
Staphylococcus aureus [9] = experiment: Antibacterial activity against Staphylococcus aureus assessed as effect on quiescent cells at 100 to 200 times MIC incubated for 24 hrs; format: functional, organism-based
Staphylococcus aureus [10] = experiment: Induction of resistance development in norfloxacin-resistant Staphylococcus aureus assessed as fold increase in MIC at sub-MIC measured after 20 passages relative to control; format: functional
Staphylococcus aureus [11] = experiment: Induction of inner membrane permeability in Staphylococcus aureus assessed as increase in fluorescence intensity at 16 ug/ml measured for 20 mins by PI dye based analysis; format: functional, organism-based; conditions: dose 16.0 µg/ml
Staphylococcus aureus [12] = experiment: Induction of cytoplasmic membrane depolarization in Staphylococcus aureus assessed as increase in fluorescence intensity at 16 ug/ml measured for 20 mins by DiSC3(5) dye based analysis; format: functional, organism-based; conditions: dose 16.0 µg/ml

SMILES: CCCCCC[n+]1ccc(C(=O)N[C@@H]2C(=O)N3C(C(=O)OC(c4ccccc4)c4ccccc4)=C(COC(C)=O)CS[C@H]23)cc1.[I-]
MIC [1]: > 128 µg/mL
MIC (Escherichia coli): > 128 µg/mL
MIC (Enterococcus faecalis): 128 µg/mL
Activity (Staphylococcus aureus [2]): Active
MIC (Staphylococcus aureus [3]): 64 µg/mL
Activity (Staphylococcus aureus [4]): Active

SMILES: CO/N=C(\C(=O)N[C@@H]1C(=O)N2C(C(=O)O)=C(COC(C)=O)CS[C@H]12)c1csc(N)n1
Activity (Staphylococcus aureus [8]): inactive
Activity (Staphylococcus aureus [9]): inactive

SMILES: C[C@H]1COc2c(N3CCN(C)CC3)c(F)cc3c(=O)c(C(=O)O)cn1c23 [LEVOFLOXACIN ANHYDROUS]
fold change (FC) (Staphylococcus aureus [10]): 16

SMILES: CC(=O)NC[C@H]1CN(c2ccc(N3CCOCC3)c(F)c2)C(=O)O1 [LINEZOLID]
fold change (FC) (Staphylococcus aureus [10]): 4

More lines, main results first:

MIC [1]: 32 µg/mL
MIC (Escherichia coli): 32 µg/mL
MIC (Enterococcus faecalis): 2 µg/mL
MIC (Staphylococcus aureus [3]): 2 µg/mL
SMILES: CCCCCCCCCC[n+]1ccc(C(=O)N[C@@H]2C(=O)N3C(C(=O)OC(c4ccccc4)c4ccccc4)=C(COC(C)=O)CS[C@H]23)cc1.[I-]
Activity (Staphylococcus aureus [2]): Active
Activity (Staphylococcus aureus [4]): Active

MIC [1]: 128 µg/mL
MIC (Escherichia coli): 128 µg/mL
MIC (Enterococcus faecalis): 8 µg/mL
MIC (Staphylococcus aureus [3]): 4 µg/mL
SMILES: CCCCCCCCCCCCCCCC[n+]1ccc(-c2cc[n+](CC3=C(C(=O)OCc4ccc(OC)cc4)N4C(=O)[C@@H](NC(=O)Cc5ccccc5)[C@H]4SC3)cc2)cc1.[I-].[I-]
Activity (Staphylococcus aureus [5]): Active
HC50 at 1 h [6]: 109 µg/mL
Activity (Staphylococcus aureus [7]): Active

MIC [1]: > 128 µg/mL
MIC (Escherichia coli): > 128 µg/mL
MIC (Enterococcus faecalis): > 128 µg/mL
MIC (Staphylococcus aureus [3]): > 128 µg/mL
SMILES: CCCCCCCC[n+]1ccc(C(=O)N[C@@H]2C(=O)N3C(C(=O)O)=C(COC(C)=O)CS[C@H]23)cc1.[I-]
Activity (Staphylococcus aureus [2]): inactive
Activity (Staphylococcus aureus [4]): inactive

MIC [1]: 32 µg/mL
MIC (Escherichia coli): 32 µg/mL
MIC (Enterococcus faecalis): 4 µg/mL
MIC (Staphylococcus aureus [3]): 1 µg/mL
SMILES: CCCCCCCCCCCC[n+]1ccc(-c2cc[n+](CC3=C(C(=O)OCc4ccc(OC)cc4)N4C(=O)[C@@H](NC(=O)Cc5ccccc5)[C@H]4SC3)cc2)cc1.[I-].[I-]
Activity (Staphylococcus aureus [5]): Active
HC50 at 1 h [6]: 273 µg/mL
Activity (Staphylococcus aureus [7]): Active

MIC [1]: 32 µg/mL
MIC (Escherichia coli): 64 µg/mL
MIC (Enterococcus faecalis): 8 µg/mL
MIC (Staphylococcus aureus [3]): 16 µg/mL
SMILES: CCCCCCCC[n+]1ccc(C(=O)N[C@@H]2C(=O)N3C(C(=O)OC(c4ccccc4)c4ccccc4)=C(COC(C)=O)CS[C@H]23)cc1.[I-]
Activity (Staphylococcus aureus [2]): Active
Activity (Staphylococcus aureus [4]): Active

MIC [1]: > 128 µg/mL
MIC (Escherichia coli): > 128 µg/mL
MIC (Enterococcus faecalis): 8 µg/mL
MIC (Staphylococcus aureus [3]): 0.25 µg/mL
SMILES: CCCCCCCCCCCCNC(=O)c1cc[n+](CC2=C(C(=O)O)N3C(=O)[C@@H](NC(=O)Cc4ccccc4)[C@H]3SC2)cc1.[I-]
Activity (Staphylococcus aureus [11]): inactive
Activity (Staphylococcus aureus [12]): inactive
HC50 at 1 h [6]: 254 µg/mL
